What all share (assay type): functional
The test system of test [1] is Klebsiella pneumoniae. Briefly: Antibacterial activity against Klebsiella pneumoniae after 24 hrs at 10 ug/ml by disc diffusion method. The settings on record: read-out: IZ. (Agar diffusion results depend on both activity and mobility in agar.)
The subject of test [2] is Aspergillus fumigatus. Briefly: Antifungal activity against Aspergillus fumigatus NICM902 at 10 ug/ml after 3 to 4 days by serial dilution method. To be noted: read-out: IZ.
Test [3] has as its system Aspergillus flavus. Kind of test: Antifungal activity against Aspergillus flavus NICM524 after 3 to 4 days by serial dilution method.
In test [4] the test system is Escherichia coli. Briefly: Antibacterial activity against Escherichia coli ATCC 25922 after 24 hrs at 10 ug/ml by disc diffusion method. The settings on record: ATCC 25922, 24 h, read-out: IZ.
The test system of test [5] is Aspergillus fumigatus. Kind of test: Antifungal activity against Aspergillus fumigatus NICM902 after 3 to 4 days by serial dilution method.
For test [6], the system named is Talaromyces marneffei. Kind of test: Antifungal activity against Penicillium marneffei at 10 ug/ml after 3 to 4 days by serial dilution method. The settings on record: read-out: IZ.
Test [7] relates to Candida albicans. Briefly: Antifungal activity against Candida albicans NICM3100 after 3 to 4 days by serial dilution method.
Test [8] relates to Pseudomonas aeruginosa. Briefly: Antibacterial activity against Pseudomonas aeruginosa ATCC 27853 at 10 ug/ml after 24 hrs by disc diffusion method. The settings on record: ATCC 27853, 24 h, read-out: IZ.
The subject of test [9] is Aspergillus flavus. Kind of test: Antifungal activity against Aspergillus flavus NICM524 at 10 ug/ml after 3 to 4 days by serial dilution method. The settings on record: read-out: IZ.
Test [10] concerns Talaromyces marneffei. Briefly: Antifungal activity against Penicillium marneffei after 3 to 4 days by serial dilution method.
Test [11] concerns Klebsiella pneumoniae. Kind of test: Antibacterial activity against Klebsiella pneumoniae after 24 hrs by disc diffusion method.
Test [12] deals with Escherichia coli. Kind of test: Antibacterial activity against Escherichia coli ATCC 25922 after 24 hrs by disc diffusion method. To be noted: ATCC 25922, 24 h.
Test [13] relates to Staphylococcus aureus. Kind of test: Antibacterial activity against Staphylococcus aureus ATCC 25923 at 10 ug/ml after 24 hrs by disc diffusion method. The settings on record: ATCC 25923, 24 h, read-out: IZ.
In test [14] the test system is Candida albicans. Kind of test: Antifungal activity against Candida albicans NICM3100 at 10 ug/ml after 3 to 4 days by serial dilution method. To be noted: read-out: IZ.
The subject of test [15] is Pseudomonas aeruginosa. Briefly: Antibacterial activity against Pseudomonas aeruginosa ATCC 27853 after 24 hrs by disc diffusion method. The settings on record: ATCC 27853, 24 h.
In test [16] the test system is Staphylococcus aureus. Kind of test: Antibacterial activity against Staphylococcus aureus ATCC 25923 after 24 hrs by disc diffusion method. The settings on record: ATCC 25923, 24 h.

≈ marks a conversion by molar mass, not a printed value.

Among the data in ChEMBL document CHEMBL1147888, “Convenient one pot synthesis and antimicrobial evaluation of some new Mannich bases carrying 4-methylthiobenzyl moiety” (2007) are zone of inhibition and MIC values, retold here.

Usually MIC stands for the least concentration at which growth counts as inhibited. As to `CSc1ccc(Cc2nn(CN3CCOCC3)c(=S)n2/N=C/c2ccc(C)cc2)cc1`, the zone of inhibition at 10 µg/mL in [1] stood at 10 mm; in test [2], 10 mm; in test [4], 10 mm; in [6], 10 mm; in test [8], 12 mm; in test [9] it was 12 mm. Further, the figures for the zone of inhibition at 10 µg/mL in [13] and in [14] were 10 mm and 12 mm, respectively. Besides, the MIC in test [3] came out at 25 µg/mL (≈ 55.1 µM); in test [5], 12.5 µg/mL (≈ 27.6 µM); in test [7], 12.5 µg/mL (≈ 27.6 µM); in test [10], 12.5 µg/mL (≈ 27.6 µM); in test [11] it was 12.5 µg/mL (≈ 27.6 µM); in test [12] it was 25 µg/mL (≈ 55.1 µM). The MIC worked out at 12.5 µg/mL (≈ 27.6 µM) in [15] and 25 µg/mL (≈ 55.1 µM) in test [16].

For the compound `COc1ccc(/C=N/n2c(Cc3ccc(SC)cc3)nn(CN3CCOCC3)c2=S)cc1`, the zone of inhibition at 10 µg/mL in test [1] came out at 10 mm; in test [2] it was 12 mm; in [4] it was 10 mm; in test [6], 12 mm; in [8], 12 mm; in test [9], 12 mm. Further, the zone of inhibition at 10 µg/mL in test [13] came out at 12 mm; in test [14], 10 mm. Further, the MIC in test [3] turned out to be 25 µg/mL (≈ 53.2 µM); in test [5] it was 12.5 µg/mL (≈ 26.6 µM); in test [7] it was 12.5 µg/mL (≈ 26.6 µM); in test [10] it was 12.5 µg/mL (≈ 26.6 µM); in test [11], 12.5 µg/mL (≈ 26.6 µM); in [12], 25 µg/mL (≈ 53.2 µM). For the same compound, the MIC was 12.5 µg/mL (≈ 26.6 µM) in test [15] and 25 µg/mL (≈ 53.2 µM) in test [16].

As for `CSc1ccc(Cc2nn(CN3CCOCC3)c(=S)n2/N=C/c2ccc(F)cc2)cc1`, the zone of inhibition at 10 µg/mL in [1] came to 12 mm; in test [2], 10 mm; in test [4] it was 12 mm; in test [6], 12 mm; in test [8], 12 mm; in [9] it was 10 mm. For the same compound, the zone of inhibition at 10 µg/mL is 12 mm in test [13] and 10 mm in [14]. Further, the MIC was 25 µg/mL (≈ 54.6 µM) in test [3]; 12.5 µg/mL (≈ 27.3 µM) in test [5]; 12.5 µg/mL (≈ 27.3 µM) in [7]; 12.5 µg/mL (≈ 27.3 µM) in [10]; 12.5 µg/mL (≈ 27.3 µM) in [11]; 25 µg/mL (≈ 54.6 µM) in [12]. The MIC in test [15] was 12.5 µg/mL (≈ 27.3 µM); in test [16] it was 25 µg/mL (≈ 54.6 µM).

As to `CSc1ccc(Cc2nn(CN3CCOCC3)c(=S)n2/N=C/c2ccc3c(c2)OCO3)cc1`, the zone of inhibition at 10 µg/mL was 10 mm in test [1]; 12 mm in test [2]; 10 mm in [4]; 10 mm in test [6]; 12 mm in test [8]; 10 mm in test [9]. Besides, the zone of inhibition at 10 µg/mL in test [13] and in [14] was 10 mm throughout. The MIC in test [3] is 25 µg/mL (≈ 51.7 µM); in test [5], 12.5 µg/mL (≈ 25.8 µM); in [7] it was 12.5 µg/mL (≈ 25.8 µM); in test [10] it was 12.5 µg/mL (≈ 25.8 µM); in test [11], 12.5 µg/mL (≈ 25.8 µM); in [12], 25 µg/mL (≈ 51.7 µM). Also, the figures for the MIC in test [15] and in test [16] were 12.5 µg/mL (≈ 25.8 µM) and 25 µg/mL (≈ 51.7 µM), respectively.

Turning to `CSc1ccc(Cc2nn(CN3CCOCC3)c(=S)n2/N=C/c2ccc(Cl)cc2)cc1`, the zone of inhibition at 10 µg/mL in test [1] was 10 mm; in test [2] it was 10 mm; in test [4], 10 mm; in test [6] it was 10 mm; in [8] it was 12 mm; in test [9], 10 mm. Further, the zone of inhibition at 10 µg/mL in test [13] and in [14] was 10 mm each time. The MIC turned out to be 25 µg/mL (≈ 52.7 µM) in [3]; 12.5 µg/mL (≈ 26.4 µM) in test [5]; 12.5 µg/mL (≈ 26.4 µM) in test [7]; 12.5 µg/mL (≈ 26.4 µM) in [10]; 12.5 µg/mL (≈ 26.4 µM) in [11]; 25 µg/mL (≈ 52.7 µM) in [12]. Further, the values for the MIC in test [15] and in [16] were 12.5 µg/mL (≈ 26.4 µM) and 25 µg/mL (≈ 52.7 µM), respectively.

`CSc1ccc(Cc2nn(CN3CCOCC3)c(=S)n2/N=C/c2ccc(Cl)cc2Cl)cc1`: the zone of inhibition at 10 µg/mL came to 18 mm in test [1]; 12 mm in test [2]; 17 mm in test [4]; 10 mm in test [6]; 23 mm in test [8]; 10 mm in test [9]. Also, the values for the zone of inhibition at 10 µg/mL in test [13] and in test [14] were 18 mm and 10 mm, respectively. In addition, the MIC was determined as 25 µg/mL (≈ 49.2 µM) in test [3]; 12.5 µg/mL (≈ 24.6 µM) in [5]; 12.5 µg/mL (≈ 24.6 µM) in test [7]; 12.5 µg/mL (≈ 24.6 µM) in [10]; 6 µg/mL (≈ 11.8 µM) in [11]; 12.5 µg/mL (≈ 24.6 µM) in test [12]. The figures for the minimal inhibitory concentration (MIC) in test [15] and in [16] were 6 µg/mL (≈ 11.8 µM) and 12.5 µg/mL (≈ 24.6 µM), respectively.
